Data on five compounds can be found in patent US6562841B1, “Methods and compositions for repelling arthropods” (The United States of America as represented by the …, priority 2000, dated 2003).

In assay [1] the test system is Aedes aegypti (Linnaeus). Briefly: Repellent bioassay on human skin, K & D modules, biting frequency of Aedes aegypti. The note with it: for repellent activity, comparison in words: pair-wise comparison alpha=0.05. The assay is classed as in vivo.
Assay [2] has as its system many species of blood-sucking arthropods. Conditions: field and laboratory studies, literature, cited from earlier work.
For assay [3], the system named is Aedes albopictus. Briefly: Repellent bioassay on human skin, K & D modules, Aedes albopictus. Format: in vivo.
Assay [4] has as its system Anopheles stephensi. Briefly: Repellent bioassay on human skin, K & D modules, Anopheles stephensi. The assay is classed as in vivo.
Assay [5] relates to Phlebotomus papatasi. The experiment in a line: Repellent bioassay on human skin, K & D modules, Phlebotomus papatasi. The assay is classed as in vivo.

Where two headings read alike, the source gives them in different places.

In assay [1] (Ae. aegypti females on treated human skin, 4.95 μg/cm^2 skin, 2 min exposure), `CC1CCCCN1C(=O)C1CC=CCC1` (racemic) [compound 220, 1-(3-cyclohexen-1-ylcarbonyl)-2-methylpiperidine, reference compound] displayed a proportion biting value of 0.45. For the same compound, the “repellent activity, comparison in words” value in assay [1] (Ae. aegypti, 4.95 μg/cm^2 skin) was “not significantly different from one another”. In addition, the figures for the “effectiveness in reducing bites compared with deet” value in assay [2] and in assay [2] (listed as 220 racemate) were “more or as effective as the commonly used arthropod repellent deet” and “more effective than deet”, respectively.
Regarding `C[C@H]1CCCCN1C(=O)[C@@H]1CC=CCC1` (single isomer, unassigned) [(1S,2′S)], the “times more repellent than the other stereoisomers” value in assay [1] (Ae. aegypti, 4.95 μg/cm^2 skin) was 2.8-3.1 times. The “times more effective in suppressing bites than the racemate” value in assay [1] (Ae. aegypti, equal dose) worked out at 2.5 times; in assay [3] it was 4 times. The “repellent effectiveness, comparison in words” value in assay [4] and in assay [5] was “most effective in repelling bites” throughout.
In the case of `CC1CCCCN1C(=O)C1CC=CCC1` [(1R,2′R), 1-(3-cyclohexen-1-ylcarbonyl)-2-methylpiperidine], in assay [1] (Ae. aegypti, 4.95 μg/cm^2 skin, listed as (1R,2′R)-220), the “repellent activity, comparison in words” value is “significantly less effective as a repellent”.
As for `CC1CCCCN1C(=O)C1CC=CCC1` [(1R,2′S), 1-(3-cyclohexen-1-ylcarbonyl)-2-methylpiperidine], the “times more repellent than the other stereoisomers” value in assay [1] (Ae. aegypti, 4.95 μg/cm^2 skin) was 1.6-1.8 times. In assay [3], the “repellent effectiveness, comparison in words” value is “more effective than the (1S,2′R) and (1R,2′R) stereoisomers”.
Consider `CC1CCCCN1C(=O)C1CC=CCC1` [(1S,2′R), 1-(3-cyclohexen-1-ylcarbonyl)-2-methylpiperidine], for which the “repellent activity, comparison in words” value in assay [1] (Ae. aegypti, 4.95 μg/cm^2 skin) is reported as “not significantly different from one another”.
